Results as given in ChEMBL document CHEMBL4342433, “Synthesis and anti-CVB3 activity of 4-amino acid derivative substituted pyrimidine nucleoside analogues” (Bioorg Med Chem Lett, 2020).

Tests used:
[1] = system: Coxsackievirus; experiment: Antiviral activity against CVB3 infected in African green monkey Vero cells by MTT assay; format: functional, organism-based, B3
[2] = (§1) Cytotoxicity in African green monkey Vero cells assessed as reduction in cell viability by MTT assay; format: cell-based; settings: chlorocebus sabaeus, Vero cells; read-out: TC50 (the source's name)
[3] = Therapeutic Index, ratio of TC50 for African green monkey Vero cells to IC50 for CVB3 infected in African green monkey Vero cells; format: toxicity
[4] = system: Coxsackievirus; experiment: Antiviral activity against CVB3 infected in African green monkey Vero cells assessed as reduction in degree of lesion incubated for 5 days by microscopic method; format: functional, organism-based; settings: B3
[5] = system: Vero; experiment: as §1; format: cell-based; settings: chlorocebus sabaeus, vero; read-out: TC50 (the source's name)

Structure (SMILES)	IC50 ([1]; Coxsackievirus, B3, Vero) [µM]	CC50 [2] [µM]	other results
COC(=O)CC[C@H](Nc1ccn([C@@H]2O[C@@](CO)(N=[N+]=[N-])[C@@H](O)[C@@H]2F)c(=O)n1)C(=O)O	648	21.5	–
NC(=O)c1ncn([C@@H]2O[C@H](CO)[C@@H](O)[C@H]2O)n1 [RIBAVIRIN]	885	31.2	selectivity ratio ([3]; Vero cells, read-out: TI): 28.3
COC(=O)[C@H](CCC(=O)O)Nc1ccn([C@@H]2O[C@@](CO)(N=[N+]=[N-])[C@@H](O)[C@@H]2F)c(=O)n1	870	9.3	Activity [4]: Dose-dependent effect
[N-]=[N+]=N[C@]1(CO)O[C@@H](n2ccc(N[C@@H](CCC(=O)O)C(=O)O)nc2=O)[C@@H](F)[C@@H]1O	488	–	CC50 [5]: 30.7 µM
CCNC(=O)CC[C@H](Nc1ccn([C@@H]2O[C@@](CO)(N=[N+]=[N-])[C@@H](O)[C@@H]2F)c(=O)n1)C(=O)NCC	> 1000	150	–
CNC(=O)CC[C@H](Nc1ccn([C@@H]2O[C@@](CO)(N=[N+]=[N-])[C@@H](O)[C@@H]2F)c(=O)n1)C(=O)NC	> 1000	126	–
[N-]=[N+]=N[C@]1(CO)O[C@@H](n2ccc(N[C@@H](CCC(N)=O)C(N)=O)nc2=O)[C@@H](F)[C@@H]1O	> 1000	160	–
[K+].[K+].[N-]=[N+]=N[C@]1(CO)O[C@@H](n2ccc(N[C@@H](CCC(=O)[O-])C(=O)[O-])nc2=O)[C@@H](F)[C@@H]1O	–	–	TI ([3]; vero): 20.8; IC50 ([1]; vero): 282 µM; CC50 [5]: 13.5 µM
COC(=O)CC[C@H](Nc1ccn([C@@H]2O[C@@](CO)(N=[N+]=[N-])[C@@H](O)[C@@H]2F)c(=O)n1)C(=O)OC	1000	257	–
